Measurements reported in the kinase profiling compilation of Christmann-Franck et al. (2016).

Legend:
Assay in all cases: radiometric filter-binding kinase assay
MINK1 (human) = MINK1 (human) (UniProt Q8N4C8)
[1] = target: STK11 CAB39 STRADA (human) (UniProt Q9Y376+Q7RTN6+Q15831)
DAPK1 (human) = DAPK1 (human) (UniProt P53355)
MAP2K2 (human) = MAP2K2 (human) (UniProt P36507)
LCK (mouse) = conditions: accession and sequence are those of the human protein
FGFR1 (human) = FGFR1 (human) (UniProt P11362)
EPHB3 (human) = EPHB3 (human) (UniProt P54753)
AURKB (human) = AURKB (human) (UniProt Q96GD4)
MAPK1 (human) = MAPK1 (human) (UniProt P28482); conditions: compound 10.0 µM
PHKG1 (human) = PHKG1 (human) (UniProt Q16816)
Sequence of PHKG1 (human) (Q16816 whole entry, looked up): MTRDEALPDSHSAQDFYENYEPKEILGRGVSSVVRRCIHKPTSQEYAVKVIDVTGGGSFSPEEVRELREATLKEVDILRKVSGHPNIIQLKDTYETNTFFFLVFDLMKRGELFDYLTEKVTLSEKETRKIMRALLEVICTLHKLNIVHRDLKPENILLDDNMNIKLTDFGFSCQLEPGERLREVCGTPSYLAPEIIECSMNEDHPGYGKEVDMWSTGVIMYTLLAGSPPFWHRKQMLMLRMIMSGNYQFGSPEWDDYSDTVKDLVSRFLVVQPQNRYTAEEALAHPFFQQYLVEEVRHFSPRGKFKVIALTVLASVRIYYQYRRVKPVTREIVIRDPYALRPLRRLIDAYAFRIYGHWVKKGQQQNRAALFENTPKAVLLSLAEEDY

RPS6KA1 KD1 KD2 (human) = RPS6KA1 KD1 KD2 (human) (UniProt Q15418)
ROCK2 (rat) = conditions: accession and sequence are those of the human protein
PRKCZ (human) = PRKCZ (human) (UniProt Q05513)
CSK (human) = CSK (human) (UniProt P41240)
Sequence of CSK (human) (P41240 whole entry, looked up): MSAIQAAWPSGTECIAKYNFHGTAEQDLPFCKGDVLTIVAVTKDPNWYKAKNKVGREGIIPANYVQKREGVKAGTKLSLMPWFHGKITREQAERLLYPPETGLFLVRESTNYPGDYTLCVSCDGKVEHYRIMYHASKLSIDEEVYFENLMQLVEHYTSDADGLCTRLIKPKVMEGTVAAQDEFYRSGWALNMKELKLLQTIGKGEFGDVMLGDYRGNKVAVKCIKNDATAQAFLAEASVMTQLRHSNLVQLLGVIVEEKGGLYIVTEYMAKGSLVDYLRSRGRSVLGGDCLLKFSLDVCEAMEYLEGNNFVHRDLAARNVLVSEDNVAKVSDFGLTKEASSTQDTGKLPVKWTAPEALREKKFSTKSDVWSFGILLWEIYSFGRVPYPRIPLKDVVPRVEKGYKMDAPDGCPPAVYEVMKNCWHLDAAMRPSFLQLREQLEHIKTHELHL

MAPKAPK3 (human) = MAPKAPK3 (human) (UniProt Q16644)
GSK3B (human) = GSK3B (human) (UniProt P49841)
PRKACA (human) = PRKACA (human) (UniProt P17612)
CHEK2 (human) = CHEK2 (human) (UniProt O96017)
IKBKB (human) = IKBKB (human) (UniProt O14920)
Sequence of IKBKB (human) (O14920 whole entry, looked up): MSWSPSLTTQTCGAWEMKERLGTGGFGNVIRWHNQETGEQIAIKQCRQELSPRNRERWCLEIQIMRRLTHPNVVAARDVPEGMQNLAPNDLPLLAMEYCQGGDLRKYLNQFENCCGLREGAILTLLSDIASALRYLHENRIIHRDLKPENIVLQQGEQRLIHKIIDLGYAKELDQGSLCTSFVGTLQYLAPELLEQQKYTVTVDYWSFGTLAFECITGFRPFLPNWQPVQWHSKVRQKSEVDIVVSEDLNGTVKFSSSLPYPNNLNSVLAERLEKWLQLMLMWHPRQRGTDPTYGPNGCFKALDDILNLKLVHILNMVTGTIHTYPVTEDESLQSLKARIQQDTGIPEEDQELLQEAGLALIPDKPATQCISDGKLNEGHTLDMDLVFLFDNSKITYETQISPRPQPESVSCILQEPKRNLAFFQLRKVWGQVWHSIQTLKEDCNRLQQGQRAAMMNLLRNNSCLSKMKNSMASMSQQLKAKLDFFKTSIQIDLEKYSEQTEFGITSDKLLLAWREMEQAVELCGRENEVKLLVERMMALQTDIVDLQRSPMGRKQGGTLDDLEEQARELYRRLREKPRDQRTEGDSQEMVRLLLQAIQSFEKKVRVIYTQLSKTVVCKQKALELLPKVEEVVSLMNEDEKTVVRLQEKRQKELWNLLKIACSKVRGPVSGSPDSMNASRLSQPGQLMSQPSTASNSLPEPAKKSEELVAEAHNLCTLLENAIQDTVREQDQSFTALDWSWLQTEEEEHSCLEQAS

MELK (human) = MELK (human) (UniProt Q14680)
NTRK1 (human) = NTRK1 (human) (UniProt P04629)
Sequence of NTRK1 (human) (P04629 whole entry, looked up): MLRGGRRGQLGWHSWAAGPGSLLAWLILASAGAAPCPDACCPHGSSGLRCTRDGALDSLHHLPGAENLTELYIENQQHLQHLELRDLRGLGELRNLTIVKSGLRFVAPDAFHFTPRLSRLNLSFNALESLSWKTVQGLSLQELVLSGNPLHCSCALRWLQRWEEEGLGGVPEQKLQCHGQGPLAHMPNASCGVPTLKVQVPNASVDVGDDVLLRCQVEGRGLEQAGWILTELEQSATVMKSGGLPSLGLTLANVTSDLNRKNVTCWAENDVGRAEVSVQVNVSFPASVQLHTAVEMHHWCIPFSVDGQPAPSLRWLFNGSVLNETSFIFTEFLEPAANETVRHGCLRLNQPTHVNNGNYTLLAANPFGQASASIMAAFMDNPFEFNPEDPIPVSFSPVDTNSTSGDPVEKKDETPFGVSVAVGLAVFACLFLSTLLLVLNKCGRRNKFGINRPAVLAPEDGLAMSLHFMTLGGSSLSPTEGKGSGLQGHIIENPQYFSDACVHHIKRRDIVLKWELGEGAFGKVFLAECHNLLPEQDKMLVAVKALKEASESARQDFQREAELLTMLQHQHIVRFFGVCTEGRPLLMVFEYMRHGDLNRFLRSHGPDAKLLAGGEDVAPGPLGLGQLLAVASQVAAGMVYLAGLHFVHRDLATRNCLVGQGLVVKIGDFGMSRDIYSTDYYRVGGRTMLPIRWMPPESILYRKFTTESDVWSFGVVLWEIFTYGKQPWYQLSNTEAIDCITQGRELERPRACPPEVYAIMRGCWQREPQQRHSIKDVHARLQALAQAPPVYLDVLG

MAPK13 (human) = MAPK13 (human) (UniProt O15264)
MYLK (human) = MYLK (human) (UniProt Q15746)
PRKAA1 or PRKAA2 (rat) = conditions: accession and sequence are those of the human protein
MKNK2 (human) = MKNK2 (human) (UniProt Q9HBH9)
SRC (human) = SRC (human) (UniProt P12931)
TTK (human) = TTK (human) (UniProt P33981)
EEF2K (human) = EEF2K (human) (UniProt O00418)
ERBB4 (human) = ERBB4 (human) (UniProt Q15303)
INSRR (human) = INSRR (human) (UniProt P14616)
MKNK1 (human) = MKNK1 (human) (UniProt Q9BUB5)
CDK2 CCNA2 (human) = CDK2 CCNA2 (human) (UniProt P20248+P24941)
MAP3K9 (human) = MAP3K9 (human) (UniProt P80192)
Sequence of MAP3K9 (human) (P80192 whole entry, looked up): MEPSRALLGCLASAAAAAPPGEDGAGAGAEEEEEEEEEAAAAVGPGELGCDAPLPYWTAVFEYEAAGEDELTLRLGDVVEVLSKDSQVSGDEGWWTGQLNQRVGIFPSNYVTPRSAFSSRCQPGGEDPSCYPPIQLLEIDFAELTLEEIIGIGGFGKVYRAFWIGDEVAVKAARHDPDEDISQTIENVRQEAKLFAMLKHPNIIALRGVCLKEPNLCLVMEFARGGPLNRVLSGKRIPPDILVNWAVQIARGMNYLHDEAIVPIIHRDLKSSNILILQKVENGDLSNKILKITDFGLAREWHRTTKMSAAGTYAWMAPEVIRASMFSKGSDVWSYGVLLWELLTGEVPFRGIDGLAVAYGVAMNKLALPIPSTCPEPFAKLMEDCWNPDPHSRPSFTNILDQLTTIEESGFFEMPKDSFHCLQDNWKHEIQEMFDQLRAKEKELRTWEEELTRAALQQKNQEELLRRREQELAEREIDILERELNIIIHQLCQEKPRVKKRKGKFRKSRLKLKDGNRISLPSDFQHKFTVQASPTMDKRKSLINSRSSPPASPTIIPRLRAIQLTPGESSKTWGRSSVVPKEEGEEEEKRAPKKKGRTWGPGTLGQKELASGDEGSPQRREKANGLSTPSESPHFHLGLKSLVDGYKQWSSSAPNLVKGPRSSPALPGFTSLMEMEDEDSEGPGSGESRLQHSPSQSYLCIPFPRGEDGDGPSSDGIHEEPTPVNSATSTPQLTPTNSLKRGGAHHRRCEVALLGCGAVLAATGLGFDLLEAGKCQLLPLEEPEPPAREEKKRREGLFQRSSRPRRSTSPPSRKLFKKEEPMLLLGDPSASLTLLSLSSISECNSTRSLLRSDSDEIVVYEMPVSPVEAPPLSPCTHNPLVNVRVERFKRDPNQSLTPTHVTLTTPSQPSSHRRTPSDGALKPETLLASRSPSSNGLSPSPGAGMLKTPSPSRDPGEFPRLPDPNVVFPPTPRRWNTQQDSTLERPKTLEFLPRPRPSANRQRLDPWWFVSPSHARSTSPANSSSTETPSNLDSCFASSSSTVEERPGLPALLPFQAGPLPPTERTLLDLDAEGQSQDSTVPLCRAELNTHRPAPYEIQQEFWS

MARK4 (human) = MARK4 (human) (UniProt Q96L34)
CSNK2A1 (human) = CSNK2A1 (human) (UniProt P68400)

Sequence of STK11 CAB39 STRADA (human) (Q15831 whole entry, looked up): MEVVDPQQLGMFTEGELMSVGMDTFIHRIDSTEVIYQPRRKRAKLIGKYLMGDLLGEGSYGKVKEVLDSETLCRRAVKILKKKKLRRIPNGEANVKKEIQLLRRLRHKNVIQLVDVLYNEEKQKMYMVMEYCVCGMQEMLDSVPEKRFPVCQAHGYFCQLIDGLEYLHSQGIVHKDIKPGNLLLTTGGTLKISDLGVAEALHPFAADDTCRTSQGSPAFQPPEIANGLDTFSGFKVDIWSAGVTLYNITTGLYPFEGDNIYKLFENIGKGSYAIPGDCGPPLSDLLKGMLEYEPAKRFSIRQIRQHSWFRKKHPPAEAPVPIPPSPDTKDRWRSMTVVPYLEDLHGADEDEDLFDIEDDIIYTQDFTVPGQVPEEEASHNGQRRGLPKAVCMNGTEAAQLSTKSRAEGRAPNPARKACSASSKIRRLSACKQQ
Sequence of STK11 CAB39 STRADA (human) (Q7RTN6 whole entry, looked up): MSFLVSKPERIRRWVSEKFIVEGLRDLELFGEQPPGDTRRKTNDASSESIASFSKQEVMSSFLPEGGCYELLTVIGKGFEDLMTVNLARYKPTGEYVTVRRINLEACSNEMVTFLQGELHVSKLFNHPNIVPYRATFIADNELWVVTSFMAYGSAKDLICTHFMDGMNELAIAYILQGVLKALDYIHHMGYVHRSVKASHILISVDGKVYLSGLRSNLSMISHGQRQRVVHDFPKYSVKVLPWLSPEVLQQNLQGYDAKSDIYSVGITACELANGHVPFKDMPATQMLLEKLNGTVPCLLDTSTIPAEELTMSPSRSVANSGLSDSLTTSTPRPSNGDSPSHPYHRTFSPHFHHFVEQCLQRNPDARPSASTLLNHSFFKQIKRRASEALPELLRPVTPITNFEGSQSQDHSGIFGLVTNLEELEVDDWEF
Sequence of STK11 CAB39 STRADA (human) (Q9Y376 whole entry, looked up): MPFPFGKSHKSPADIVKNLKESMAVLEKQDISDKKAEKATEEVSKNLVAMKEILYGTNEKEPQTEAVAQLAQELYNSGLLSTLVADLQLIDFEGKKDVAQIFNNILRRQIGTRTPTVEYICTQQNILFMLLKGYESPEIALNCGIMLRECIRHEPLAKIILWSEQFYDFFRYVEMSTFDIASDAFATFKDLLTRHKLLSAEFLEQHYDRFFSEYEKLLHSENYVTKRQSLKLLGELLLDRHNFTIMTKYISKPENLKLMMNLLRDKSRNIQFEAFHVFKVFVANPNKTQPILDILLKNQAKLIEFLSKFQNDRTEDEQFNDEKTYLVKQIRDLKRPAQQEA

CC1=C(CO)C(=O)O[C@@H]([C@@H](C)[C@H]2CC[C@H]3[C@@H]4C[C@H]5O[C@]56[C@@H](O)C=CC(=O)[C@]6(C)C4CC[C@]23C)C1 (some centres undefined)
residual activity (MINK1 (human); compound 0.1 µM): 94% | residual activity (MINK1 (human); compound 1.0 µM): 88% | residual activity (MINK1 (human); compound 10.0 µM): 81% | residual activity ([1]; compound 0.1 µM): 104% | residual activity ([1]; compound 1.0 µM): 111% | residual activity ([1]; compound 10.0 µM): 114% | residual activity (DAPK1 (human); compound 0.1 µM): 108% | residual activity (DAPK1 (human); compound 1.0 µM): 95% | residual activity (DAPK1 (human); compound 10.0 µM): 108% | residual activity (MAP2K2 (human); compound 0.1 µM): 108% | residual activity (MAP2K2 (human); compound 10.0 µM): 120% | residual activity (LCK (mouse); compound 1.0 µM): 111% | residual activity (LCK (mouse); compound 10.0 µM): 129% | residual activity (FGFR1 (human); compound 0.1 µM): 98% | residual activity (FGFR1 (human); compound 1.0 µM): 97% | residual activity (FGFR1 (human); compound 10.0 µM): 94% | residual activity (EPHB3 (human); compound 0.1 µM): 114% | residual activity (EPHB3 (human); compound 1.0 µM): 104% | residual activity (EPHB3 (human); compound 10.0 µM): 97% | residual activity (AURKB (human); compound 0.1 µM): 108% | residual activity (AURKB (human); compound 1.0 µM): 86% | residual activity (AURKB (human); compound 10.0 µM): 10% | residual activity (MAPK1 (human)): 111% | residual activity (PHKG1 (human); compound 0.1 µM): 110% | residual activity (PHKG1 (human); compound 1.0 µM): 112% | residual activity (PHKG1 (human); compound 10.0 µM): 105% | residual activity (RPS6KA1 KD1 KD2 (human); compound 0.1 µM): 109% | residual activity (RPS6KA1 KD1 KD2 (human); compound 1.0 µM): 101% | residual activity (RPS6KA1 KD1 KD2 (human); compound 10.0 µM): 105% | residual activity (ROCK2 (rat); compound 0.1 µM): 103% | residual activity (ROCK2 (rat); compound 1.0 µM): 107% | residual activity (ROCK2 (rat); compound 10.0 µM): 112% | residual activity (PRKCZ (human); compound 0.1 µM): 103% | residual activity (PRKCZ (human); compound 1.0 µM): 110% | residual activity (PRKCZ (human); compound 10.0 µM): 101% | residual activity (CSK (human); compound 0.1 µM): 112% | residual activity (CSK (human); compound 1.0 µM): 109% | residual activity (CSK (human); compound 10.0 µM): 111% | residual activity (MAPKAPK3 (human); compound 0.1 µM): 120% | residual activity (MAPKAPK3 (human); compound 1.0 µM): 85% | residual activity (MAPKAPK3 (human); compound 10.0 µM): 47% | residual activity (GSK3B (human); compound 0.1 µM): 114% | residual activity (GSK3B (human); compound 1.0 µM): 124% | residual activity (GSK3B (human); compound 10.0 µM): 127% | residual activity (PRKACA (human); compound 0.1 µM): 112% | residual activity (PRKACA (human); compound 1.0 µM): 109% | residual activity (PRKACA (human); compound 10.0 µM): 113% | residual activity (CHEK2 (human); compound 0.1 µM): 130% | residual activity (CHEK2 (human); compound 1.0 µM): 116% | residual activity (CHEK2 (human); compound 10.0 µM): 61% | residual activity (IKBKB (human); compound 0.1 µM): 103% | residual activity (IKBKB (human); compound 1.0 µM): 103% | residual activity (IKBKB (human); compound 10.0 µM): 72% | residual activity (MELK (human); compound 0.1 µM): 98% | residual activity (MELK (human); compound 1.0 µM): 107% | residual activity (MELK (human); compound 10.0 µM): 123% | residual activity (NTRK1 (human); compound 0.1 µM): 92% | residual activity (NTRK1 (human); compound 1.0 µM): 110% | residual activity (NTRK1 (human); compound 10.0 µM): 97% | residual activity (MAPK13 (human); compound 0.1 µM): 106% | residual activity (MAPK13 (human); compound 1.0 µM): 110% | residual activity (MAPK13 (human); compound 10.0 µM): 92% | residual activity (MYLK (human); compound 0.1 µM): 113% | residual activity (MYLK (human); compound 1.0 µM): 114% | residual activity (MYLK (human); compound 10.0 µM): 114% | residual activity (PRKAA1 or PRKAA2 (rat); compound 0.1 µM): 99% | residual activity (PRKAA1 or PRKAA2 (rat); compound 1.0 µM): 100% | residual activity (PRKAA1 or PRKAA2 (rat); compound 10.0 µM): 90% | residual activity (MKNK2 (human); compound 0.1 µM): 99% | residual activity (MKNK2 (human); compound 10.0 µM): 126% | residual activity (SRC (human); compound 0.1 µM): 114% | residual activity (SRC (human); compound 1.0 µM): 113% | residual activity (TTK (human); compound 0.1 µM): 111% | residual activity (TTK (human); compound 1.0 µM): 112% | residual activity (TTK (human); compound 10.0 µM): 94% | residual activity (EEF2K (human); compound 0.1 µM): 104% | residual activity (EEF2K (human); compound 1.0 µM): 100% | residual activity (EEF2K (human); compound 10.0 µM): 97% | residual activity (ERBB4 (human); compound 0.1 µM): 113% | residual activity (ERBB4 (human); compound 1.0 µM): 109% | residual activity (ERBB4 (human); compound 10.0 µM): 101% | residual activity (INSRR (human); compound 0.1 µM): 99% | residual activity (INSRR (human); compound 1.0 µM): 97% | residual activity (INSRR (human); compound 10.0 µM): 77% | residual activity (MKNK1 (human); compound 0.1 µM): 98% | residual activity (MKNK1 (human); compound 1.0 µM): 100% | residual activity (MKNK1 (human); compound 10.0 µM): 108% | residual activity (CDK2 CCNA2 (human); compound 0.1 µM): 108% | residual activity (CDK2 CCNA2 (human); compound 1.0 µM): 113% | residual activity (CDK2 CCNA2 (human); compound 10.0 µM): 117% | residual activity (MAP3K9 (human); compound 0.1 µM): 91% | residual activity (MAP3K9 (human); compound 1.0 µM): 100% | residual activity (MAP3K9 (human); compound 10.0 µM): 86% | residual activity (MARK4 (human); compound 0.1 µM): 87% | residual activity (MARK4 (human); compound 1.0 µM): 97% | residual activity (MARK4 (human); compound 10.0 µM): 77% | residual activity (CSNK2A1 (human); compound 0.1 µM): 79% | residual activity (CSNK2A1 (human); compound 1.0 µM): 94% | residual activity (CSNK2A1 (human); compound 10.0 µM): 94%
